In patent publication US20200208128A1, “METHODS OF TREATING LIVER DISEASES” (CAMP4 THERAPEUTICS CORPORATION, priority 2017, published 2020):
“Also recorded” adds a separate entry of the source. Values belong to the molecule of their own block, whether it stands above or below them.

How the values were obtained:
[1] = test system: PNPLA3; assay: RNA-seq of compound-treated primary human hepatocytes: PNPLA3 expression; type: cell-based
Method: (§5) Cryopreserved hepatocytes were cultured in plating media for 16 hours, transferred to maintenance media for 4 hours. Cultured on serum-free media for 2 hours, then a compound was added. The hepatocytes were maintained on the serum-free media for 16 hours prior to gene expression analysis.
(§6) Human hepatocytes cultured as described above were plated in 24-well format, adding 375,000 cells per well in a volume of 500 ul plating medium. Four hours before treatment, cells were washed with PBS and the medium was changed to either: fresh maintenance medium (complete) or modified maintenance medium.
Compound stocks were prepared at 1000× final concentration and added in a 2-step dilution to the medium to reduce risk of a compound precipitating out of solution when added to the cells, and to ensure reasonable pipetting volumes. One at a time, each compound was first diluted 10-fold in warm (about 37° C.) modified maintenance medium (initial dilution=ID), mixed by vortexing, and the ID was diluted 100-fold into the cell culture (e.g. 5.1 μl into 1 well of a 24-well plate containing 0.5 mL medium). The plate was mixed by carefully swirling and after all wells were treated and returned to the incubator overnight. If desired, separate plates/wells were treated with vehicle-only controls and/or positive controls. If using multi-well plates, controls were included on each plate. After about 18 hours, cells were harvested for further analysis, e.g., ChIP-seq, RNA-seq, ATAC-seq, etc.
The expression level of each gene was quantified with normalized FPKM (fragments per kilobase of exon per million mapped fragments). The differentially expressed genes were called using Cuffdiff v2.2.1 with q value <0.01 and log 2fold change >=1 or <=−1.
RNA-seq was performed to determine the effects of the compounds on PNPLA3 expression in hepatocytes. Fold change was calculated by dividing the level of expression in the cell system that had been perturbed by the level of expression in an unperturbed system. Changes in expression having a p-value ≤0.05 were considered significant.

[2] = test system: PNPLA5; assay: RNA-seq of compound-treated primary human hepatocytes: PNPLA5 expression; type: cell-based
Method: as §5, §6
Compound stocks were prepared at 1000× final concentration and added in a 2-step dilution to the medium to reduce risk of a compound precipitating out of solution when added to the cells, and to ensure reasonable pipetting volumes. One at a time, each compound was first diluted 10-fold in warm (about 37° C.) modified maintenance medium (initial dilution=ID), mixed by vortexing, and the ID was diluted 100-fold into the cell culture (e.g. 5.1 μl into 1 well of a 24-well plate containing 0.5 mL medium). […]
The expression level of each gene was quantified with normalized FPKM (fragments per kilobase of exon per million mapped fragments). […]
Fold change was calculated by dividing the level of expression in the cell system that had been perturbed by the level of expression in an unperturbed system. […]

[3] = test system: PNPLA3; assay: qRT-PCR of PNPLA3 expression in mouse hepatocytes; type: cell-based
Method: Analysis of the fold changes in expression as measured by qRT-PCR were performed using the technique below. The control was DMSO, and the treatment was the selected compound (CPD). The internal control was GAPDH or B-Actin (or otherwise indicated), and the gene of interest is the target. First, the averages of the 4 conditions were calculated for normalization: DMSO:GAPDH, DMSO:Target, CPD: GAPDH, and CPD:Target. Next, the ΔCT of both control and treatment were calculated to normalize to internal control (GAPDH) using (DMSO:Target)−(DMSO:GAPDH)=ΔCT control and (CPD:Target)−(CPD: GAPDH)=ΔCT experimental. Then, the ΔΔCT was calculated by ΔCT experimental−ΔCT control.
Compounds were tested at concentrations ranging from 0.01 μM to 50 μM. […] PNPLA3 levels were normalized to the level of a house keeping gene ACTB.

[4] = test system: COL1A1; assay: qRT-PCR of COL1A1 mRNA in hepatic stellate cells; type: cell-based, human; conditions: for Effect on COL1A1 expression in stellate cells: serial dilutions; for Relative COLIA1 mRNA levels RQ: four technical replicates; for Relative COL1A1 mRNA levels RQ: fold change vs DMSO
Method: (§1) Human Primary Stellate cells (HSC) (ScienceCell Cat #5300) were originally isolated from the liver of a donor. Cells were plated in Stellate Cell Medium (SteCM) (ScienCell Cat #5301) on black clear bottom plates (GREINER BIO-ONE:82050-730) coated with 2 μg/cm^2 PolyLLysine (PLL) (ScienceCell Cat #0413). Cells were plated at a density of 17000 cells/well in a 96-well plate and allowed to adhere overnight. The following day cell culture media was replenished with the indicated concentration(s) of compound for 18 hours. […] Medium was removed after 18 hours and cells were processed for further analysis, e.g. qRT-PCR.
(§2) In some examples, RQ Min and RQ Max values are also reported. RQ Min and RQ Max are the minimum and maximum relative levels of gene expression in the test samples, respectively. They were calculated using the confidence level set in the analysis settings and the confidence level was set to one standard deviation (SD). These values were calculated using standard deviation as follows: […].
Candidate compounds were tested in stellate cells for their ability to modulate PNPLA3 and COL1A1. […] Changes in PNPLA3 (or COL1A1) mRNA levels in stellate cells were analyzed with qRT-PCR. Once compounds capable of downregulating PNPLA3 and/or COL1A1 were identified, additional compounds that are known to act in the same pathways were also tested. Transforming growth factor beta (TGF-beta) is known to induce fibrotic genes including COL1A1 in vitro, and was thus chosen as a positive control (i.e., positively regulate COL1A1 expression).

[5] = test system: PNPLA3; assay: In vivo compound testing in mice: PNPLA3 expression in liver (qRT-PCR); design: species or system mouse; conditions: wild-type mice, 50 mg/kg once daily oral gavage, four days
Method: (§3) A group of 6 mice (C57BL/6J strain), 3 male and 3 female, were administered with a candidate compound once daily via oral gavage for four consecutive days. Mice were sacrificed 4 hours post-last dose on the fourth day. Organs including liver, spleen, kidney, adipose, plasma were collected. Mouse liver tissues were pulverized in liquid nitrogen and aliquoted into small microtubes. TRIzol (Invitrogen Cat #15596026) was added to the tubes to facilitate cell lysis from tissue samples. The TRIzol solution containing the disrupted tissue was then centrifuged and the supernatant phase was collected. Total RNA was extracted from the supernatant using Qiagen RNA Extraction Kit (Qiagen Cat #74182) and the target mRNA levels were analyzed using qRT-PCR.
(§4) Candidate compounds were administered at an appropriate dose once daily to a group of wild-type mice consisting of 3 male and 3 female mice. Mice were sacrificed on the fourth day and liver tissue was collected and analyzed for PNPLA3 (or COL1A1) expression by qRT-PCR. […] When COL1A1 was analyzed, a stellate cell specific gene GFAP was used as a house-keeping control.

[6] = test system: PNPLA3; assay: qRT-PCR validation of PNPLA3 expression in primary human hepatocytes; type: cell-based
Method: Cryopreserved hepatocytes were cultured in plating media for 16 hours, transferred to maintenance media for 4 hours. Cultured on serum-free media for 2 hours, then a compound was added. The hepatocytes were maintained on the serum-free media for 16 hours prior to gene expression analysis. Primary Human Hepatocytes were stored in the vapor phase of a liquid nitrogen freezer (about −130° C.).
as §6
Compound stocks were prepared at 1000× final concentration and added in a 2-step dilution to the medium to reduce risk of a compound precipitating out of solution when added to the cells, and to ensure reasonable pipetting volumes. One at a time, each compound was first diluted 10-fold in warm (about 37° C.) modified maintenance medium (initial dilution=ID), mixed by vortexing, and the ID was diluted 100-fold into the cell culture (e.g. 5.1 μl into 1 well of a 24-well plate containing 0.5 mL medium). The plate was mixed by carefully swirling and after all wells were treated and returned to the incubator overnight. If desired, separate plates/wells were treated with vehicle-only controls and/or positive controls. If using multi-well plates, controls were included on each plate.
Samples were amplified using the following Taqman probes from ThermoFisher for each target: Hs01552217_m1 (human PNPLA3).
Analysis of the fold changes in expression as measured by qRT-PCR were performed using the technique below. The control was DMSO, and the treatment was the selected compound (CPD). The internal control was GAPDH or B-Actin (or otherwise indicated), and the gene of interest is the target. First, the averages of the 4 conditions were calculated for normalization: DMSO:GAPDH, DMSO:Target, CPD: GAPDH, and CPD:Target. Next, the ΔCT of both control and treatment were calculated to normalize to internal control (GAPDH) using (DMSO:Target)−(DMSO:GAPDH)=ΔCT control and (CPD:Target)−(CPD: GAPDH)=ΔCT experimental. Then, the ΔΔCT was calculated by ΔCT experimental−ΔCT control. The Expression Fold Change (or Relative Quantification, abbreviated as RQ) was calculated by 2−(ΔΔCT) (2-fold expression change was shown by RNA-Seq results provided herein).
Candidate compounds were subjected to validation with qRT-PCR in human hepatocytes. qRT-PCR was performed on samples of primary human hepatocytes from a second donor treated with the candidate compounds. Compounds were tested at concentrations ranging from 0.01 μM to 50 μM, with the majority tested at 10 μM.

[7] = test system: JNK; conditions: cited from earlier work
[8] = test system: PNPLA3; assay: qRT-PCR of PNPLA3 mRNA in hepatic stellate cells; type: cell-based, human; conditions: for Effect on PNPLA3 mRNA levels in stellate cells: serial dilutions; for Relative PNPLA3 mRNA levels RQ: fold change vs DMSO
Method: as §1, §2
Candidate compounds were tested in stellate cells for their ability to modulate PNPLA3 and COL1A1. Stellate cells were treated with serial dilutions of the compounds, ranging from 0.1 μM to 100 μM. Changes in PNPLA3 (or COL1A1) mRNA levels in stellate cells were analyzed with qRT-PCR. Once compounds capable of downregulating PNPLA3 and/or COL1A1 were identified, additional compounds that are known to act in the same pathways were also tested. Transforming growth factor beta (TGF-beta) is known to induce fibrotic genes including COL1A1 in vitro, and was thus chosen as a positive control (i.e., positively regulate COL1A1 expression).

[9] = In vivo compound testing in mice: body weight, organ weight, other liver genes; design: species or system mouse; conditions: 50 mg/kg once daily, four days
Method: as §3, §4

[10] = test system: PNPLA3 (I148M mutation), HepG2 cells; assay: qRT-PCR of mutant PNPLA3 expression in HepG2 cells; type: cell-based
Method: HepG2 cells were plated in 24 well format at 100,000 cells per well in 500 μl DMEM. […] The following morning, the cells were harvested for RNA extraction.
Candidate compounds were evaluated in a PNPLA3 mutant cell line HepG2 to test their effects on mutant PNPLA3 expression. The HepG2 cells have the I148M mutation in PNPLA3. Changes in PNPLA3 expression in HepG2 cells were analyzed with qRT-PCR. PNPLA3 mRNA levels were normalized to the geometric mean of two internal controls, GUSB and B2M.

[11] = test system: COL1A1; assay: In vivo compound testing in mice: COL1A1 expression in liver (qRT-PCR); design: species or system mouse; conditions: wild-type mice, 50 mg/kg once daily oral gavage, four days, GFAP as house-keeping control
Method: as §3, §4

[12] = target: stem cell growth factor receptor (SCFR or c-Kit) (Homo sapiens, UniProt P10721); conditions: cited from earlier work
[13] = target: T1, FLT3 (Homo sapiens, UniProt P36888); conditions: cited from earlier work
T1 construct: IC50; other: FLT3
T1 sequence (P36888 1-993 D835Y): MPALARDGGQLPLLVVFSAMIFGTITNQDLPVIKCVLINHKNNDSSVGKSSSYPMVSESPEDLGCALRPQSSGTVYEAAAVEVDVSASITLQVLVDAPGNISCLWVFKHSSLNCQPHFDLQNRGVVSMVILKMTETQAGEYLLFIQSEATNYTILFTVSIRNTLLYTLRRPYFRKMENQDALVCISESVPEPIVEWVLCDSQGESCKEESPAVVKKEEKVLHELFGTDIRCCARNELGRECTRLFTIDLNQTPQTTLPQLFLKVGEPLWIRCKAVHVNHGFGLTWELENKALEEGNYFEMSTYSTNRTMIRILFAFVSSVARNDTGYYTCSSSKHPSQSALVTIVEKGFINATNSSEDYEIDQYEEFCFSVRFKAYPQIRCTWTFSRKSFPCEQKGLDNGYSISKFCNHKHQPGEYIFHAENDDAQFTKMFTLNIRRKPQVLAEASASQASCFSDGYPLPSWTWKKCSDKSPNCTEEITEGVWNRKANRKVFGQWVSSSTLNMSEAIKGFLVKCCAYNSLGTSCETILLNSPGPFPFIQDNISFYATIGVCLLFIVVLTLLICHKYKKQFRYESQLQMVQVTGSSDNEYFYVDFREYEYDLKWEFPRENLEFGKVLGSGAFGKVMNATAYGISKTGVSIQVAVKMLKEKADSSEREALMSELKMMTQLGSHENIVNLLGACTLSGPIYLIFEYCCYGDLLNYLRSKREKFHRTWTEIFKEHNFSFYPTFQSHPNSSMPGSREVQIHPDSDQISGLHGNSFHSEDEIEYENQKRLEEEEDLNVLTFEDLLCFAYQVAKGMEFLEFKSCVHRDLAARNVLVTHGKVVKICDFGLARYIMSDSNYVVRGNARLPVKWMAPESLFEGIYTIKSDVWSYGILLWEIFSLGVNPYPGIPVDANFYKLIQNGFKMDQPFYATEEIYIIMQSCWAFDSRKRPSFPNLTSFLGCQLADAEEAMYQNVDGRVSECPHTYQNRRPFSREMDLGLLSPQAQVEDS

[14] = target: Platelet-derived growth factor receptor alpha (PDGFRα) (Homo sapiens, UniProt P16234); conditions: cited from earlier work
Platelet-derived growth factor receptor alpha (PDGFRα), sequence (P16234 593-954 limits assumed): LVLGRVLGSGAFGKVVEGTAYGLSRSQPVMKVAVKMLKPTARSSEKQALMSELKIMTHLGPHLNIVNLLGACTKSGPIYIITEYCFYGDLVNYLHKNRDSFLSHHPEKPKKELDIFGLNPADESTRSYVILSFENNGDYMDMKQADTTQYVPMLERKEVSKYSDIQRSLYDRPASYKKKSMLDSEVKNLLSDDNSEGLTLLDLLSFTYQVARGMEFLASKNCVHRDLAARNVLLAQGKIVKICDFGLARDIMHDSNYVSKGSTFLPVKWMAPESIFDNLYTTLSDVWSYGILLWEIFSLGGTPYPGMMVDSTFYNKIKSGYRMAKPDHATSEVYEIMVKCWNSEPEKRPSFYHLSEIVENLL

stem cell growth factor receptor (SCFR or c-Kit), sequence (P10721 whole entry D816H, form open): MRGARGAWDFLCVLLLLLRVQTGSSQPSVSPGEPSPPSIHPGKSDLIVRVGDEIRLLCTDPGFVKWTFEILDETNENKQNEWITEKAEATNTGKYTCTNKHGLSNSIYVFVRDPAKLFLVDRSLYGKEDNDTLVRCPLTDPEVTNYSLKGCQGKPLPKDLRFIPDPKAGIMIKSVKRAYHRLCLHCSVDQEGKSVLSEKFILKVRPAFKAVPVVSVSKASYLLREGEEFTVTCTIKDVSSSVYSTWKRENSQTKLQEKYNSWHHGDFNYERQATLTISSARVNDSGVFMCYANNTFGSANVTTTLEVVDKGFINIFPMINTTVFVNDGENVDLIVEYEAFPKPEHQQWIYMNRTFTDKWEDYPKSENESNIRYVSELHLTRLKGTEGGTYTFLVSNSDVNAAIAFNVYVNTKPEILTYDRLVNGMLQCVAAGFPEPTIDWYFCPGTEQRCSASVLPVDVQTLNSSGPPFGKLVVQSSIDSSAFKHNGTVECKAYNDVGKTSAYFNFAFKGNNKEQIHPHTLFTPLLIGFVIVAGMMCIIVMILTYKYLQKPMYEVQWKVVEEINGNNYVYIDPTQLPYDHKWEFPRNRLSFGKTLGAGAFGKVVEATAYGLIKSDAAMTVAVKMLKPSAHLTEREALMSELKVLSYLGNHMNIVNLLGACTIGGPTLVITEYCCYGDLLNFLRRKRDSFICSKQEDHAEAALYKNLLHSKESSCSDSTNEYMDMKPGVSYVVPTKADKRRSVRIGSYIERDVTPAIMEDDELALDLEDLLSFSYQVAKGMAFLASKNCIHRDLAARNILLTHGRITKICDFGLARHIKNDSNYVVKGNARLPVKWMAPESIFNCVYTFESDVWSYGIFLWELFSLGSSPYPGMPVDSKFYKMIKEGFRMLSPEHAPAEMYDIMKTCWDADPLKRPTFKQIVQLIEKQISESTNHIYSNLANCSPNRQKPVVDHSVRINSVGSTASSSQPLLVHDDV

Molecule: Activin
Upregulation of PNPLA3 in the RNA-seq study [1]: best upregulators
Upregulation of PNPLA5 in the RNA-seq study [2]: best upregulators

Molecule: COc1ccc(-c2cc3c(C)nc(N)nc3n([C@H]3CC[C@H](OCCO)CC3)c2=O)cn1 [PF-04691502]
Relative PNPLA3 mRNA levels ([3]; 1 μM): 0.21 ± 0.10

Molecule: N#CCNC(=O)c1ccc(-c2ccnc(Nc3ccc(N4CCOCC4)cc3)n2)cc1 [Momelotinib, N-(cyanomethyl)-4-{2-[4-(morpholin-4-yl)anilino]pyrimidin-4-yl}benzamide]
Effect on COL1A1 expression in stellate cells [4]: did not alter COL1A1 expression
PNPLA3 expression in mouse liver [5]: reduced PNPLA3 significantly
Effect on PNPLA3 expression in human hepatocytes [6]: substantial decrease; also recorded: dose-dependent response
IC50 [7]: < 100 nM
Effect on PNPLA3 mRNA levels in stellate cells [8]: reduced PNPLA3 mRNA levels in stellate cells in a dose-dependent manner
Animal body weight, organ weight, other liver genes such as albumin, ASGR1, HAMP1 [9]: No change was observed
Response of mutant PNPLA3 mRNA levels in HepG2 cells [10]: dose-dependent manner

Molecule: COc1nc(N)nc2c1ncn2[C@@H]1O[C@H](COP(=O)(N[C@@H](C)C(=O)OCC(C)(C)C)Oc2cccc3ccccc23)[C@@H](O)[C@@]1(C)O (stereo partly shown) [BMS-986094]
PNPLA3 expression, Fold change (Log 2) vs untreated [1]: −0.69 Log 2

Effect on PNPLA3 expression in human hepatocytes [6]: substantial decrease
Molecule: C1=C/COCc2cc(ccc2OCCN2CCCC2)Nc2nccc(n2)-c2cccc(c2)COC/1 [Pacritinib]

Molecule: CN1CCN(S(=O)(=O)c2ccc(-c3cnc(N)c(C(=O)Nc4cccnc4)n3)cc2)CC1 [AZD2858]
Relative COLIA1 mRNA levels RQ ([4]; 1 μM): 0.83
Relative COLIA1 mRNA levels RQ ([4]; 10 μM): 0.72
Effect on COL1A1 expression in stellate cells [4]: modestly decreased both PNPLA3 and COL1A1 in a dose dependent manner
Effect on PNPLA3 mRNA levels in stellate cells [8]: modestly decreased both PNPLA3 and COL1A1 in a dose dependent manner

Effect on PNPLA3 expression in human hepatocytes [6]: efficient downregulation
Molecule: CNS(=O)(=O)C[C@H]1CC[C@H](N(C)c2ncnc3[nH]ccc23)CC1 [Oclacitinib]

Effect on PNPLA3 expression in human hepatocytes [6]: efficient downregulation
Molecule: Cc1cc(Nc2nc(N[C@@H](C)c3ncc(F)cn3)ncc2Cl)[nH]n1 [AZD1480]

Molecule: CNC(=O)Nc1ccc(-c2nc(N3CC4CCC(C3)O4)c3cnn(C4CCC5(CC4)OCCO5)c3n2)cc1 [WYE-125132]
Effect on COL1A1 expression in stellate cells [4]: decreased both PNPLA3 and COL1A1 in HSCs in a dose-dependent manner
PNPLA3 expression, Fold change (Log 2) vs untreated [1]: −0.86 Log 2
COL1A1 expression in mouse liver [11]: reduced COL1A1 expression
Effect on PNPLA3 mRNA levels in stellate cells [8]: decreased both PNPLA3 and COL1A1 in HSCs in a dose-dependent manner

Molecule: NS(=O)(=O)C#Cc1ccccc1 [Pifithrin-μ, 2-Phenylethynesulfonamide]
PNPLA3 expression, Fold change (Log 2) vs untreated [1]: −0.68 Log 2

Molecule: CN1C(=O)c2sccc2N(C)c2nc(Nc3ccc(S(N)(=O)=O)cc3)ncc21 [XMU-MP-1]
PNPLA3 expression, Fold change (Log 2) vs untreated [1]: −0.66 Log 2

Molecule: S=C(NCc1ccc2c(c1)OCO2)N1CCN(c2ncnc3c2oc2ccccc23)CC1 [Amuvatinib]
PNPLA3 expression, Fold change (Log 2) vs untreated [1]: −0.52 Log 2
IC50 [12]: 10 nM
IC50 [13]: 81 nM
IC50 [14]: 40 nM

Molecule: O=C1Nc2cc(Br)ccc2/C1=C1/Nc2ccccc2/C1=N\O [BIO]
Relative COLIA1 mRNA levels RQ ([4]; 1 μM): 0.74
Relative COLIA1 mRNA levels RQ ([4]; 10 μM): 0.59
Effect on COL1A1 expression in stellate cells [4]: modestly decreased both PNPLA3 and COL1A1 in a dose dependent manner
Effect on PNPLA3 mRNA levels in stellate cells [8]: modestly decreased both PNPLA3 and COL1A1 in a dose dependent manner

Molecule: CCC(=O)N1CCN(c2ccc(-n3c(=O)ccc4cnc5ccc(-c6cnc7ccccc7c6)cc5c43)cc2C(F)(F)F)CC1 [Torin 1]
Relative COL1A1 mRNA levels RQ ([4]; compound 0.01 μM): 0.29
Relative COL1A1 mRNA levels RQ ([4]; compound 0.1 μM): 0.41
Relative COL1A1 mRNA levels RQ ([4]; compound 1 μM): 0.43
Relative COL1A1 mRNA levels RQ ([4]; compound 10 μM): 0.36
Relative PNPLA3 mRNA levels ([3]; 10 μM): 0.53 ± 0.25
Relative PNPLA3 mRNA levels RQ ([8]; compound 0.01 μM): 0.34
Relative PNPLA3 mRNA levels RQ ([8]; compound 0.1 μM): 0.65
Relative PNPLA3 mRNA levels RQ ([8]; compound 1 μM): 0.99
Relative PNPLA3 mRNA levels RQ ([8]; compound 10 μM): 2.39

B1: GDF2 (BMP9) (protein, UniProt Q9UK05 320-429, looked up)
Growth/differentiation factor …: SAGAGSHCQKTSLRVNFEDIGWDSWIIAPKEYEAYECKGGCFFPLADDVTPTKHAIVQTLVHLKFPTKVGKACCVPTKLSPISVLYKDDMGVPTLKYHYEGMSVAECGCR
Upregulation of PNPLA3 in the RNA-seq study [1]: best upregulators
Upregulation of PNPLA5 in the RNA-seq study [2]: best upregulators
